The target of test [1] is T1, Tau protein (full-length human Tau, hTau40) (Homo sapiens, UniProt P10636).
T1 construct: The full-length human Tau (hTau40) was expressed in a transformed E. coli BL21 (DE3) strain; made in house; host or cells: E. coli BL21 (DE3)
The experiment in a line: Tau intrinsic fluorescence quenching, modified Stern–Volmer binding parameters. The conditions noted are these: 5 µM Tau, buffer B pH 6.8, mean ± SD; for Kd: read-out: Equilibrium Binding Constants to Tau, KD. As for the experimental part:
Fluorescence measurements were performed with a Horiba Jobin Yvon FluoroMax-3 spectrofluorometer. […] For experiments, the excitation wavelength was fixed at 275 nm, and the emission spectra were recorded between 280 nm and 500 nm at room temperature. The inner filter effects were corrected according to Lakowicz as follows:F = Fobs × exp{(Aem + Aex)/2}(2) where Fobs and F are the observed and corrected fluorescence values at the emission wavelength of 303 nm. Aex and Aem are the absorptions at the excitation and emission wavelengths, respectively, calculated with A = ε.l.C, in which ε is the extinction coefficient of Tau, l is the path length of cuvette, and C is Tau concentration.
The total fluorescence in the absence of quencher (F0) is given by:F0 = F0a + F0b(4) where 0 refers to the fluorescence intensity in the absence of quencher.
In the presence of quencher, we defined fa as the fraction of the initial fluorescence of Tau accessible to compounds:fa = F0a/(F0a + F0b)(5)
Therefore, the intensity of the accessible fraction (fa) is decreased according to the Stern–Volmer equation, whereas the buried fraction is not quenched, as given by:F = {F0a/(1 + K.[Q])} + F0b(6)
Then, subtraction of Equations (6) and (4) yields:ΔF = F0 − F = F0a × {K.[Q]/(1 + K.[Q])}(7)
At last, inversion of Equation (7) followed by division into Equation (4) yields:F0/ΔF = {1/(fa.K.[Q])} + 1/fa(8)
We applied this modified form of the Stern–Volmer equation to graphically determine the values of fa and K. For our experiments, we plotted F0/ΔF against 1/[Q], then we determined the fa value at the point of intersection with the y-axis, while the slope represented (faK)^−1.

For test [2], the system named is Caco-2 colon adenocarcinoma cells. The test can be described thus: MTT cell viability assay, Caco-2. Format: cell-based. The conditions noted are these: Homo sapiens, Caco-2 (not expressing Tau), 72 h, mean ± SEM, read-out: IC50 (metabolic activity). As for the experimental part:
(§1) Cells harvested from sub-confluent monolayers were seeded at 15,000 cells per mL in a 96-well microtiter plate (Cambridge Technology, Labège, France) and cultured for 24 h under standard conditions. Standard medium was then replaced by fresh medium containing no drugs or compounds at different concentrations. The surviving cells were quantified after 72 h by the MTT assay, according to the manufacturer’s instructions. Briefly, 20 µL of 3-(4,5-diMethylThiazol-2-yl)-2,5diphenyl Tetrazolium bromide (MTT) solution at 5 mg.mL^−1 was added to cells for 3 h at 37 °C. The supernatant was discarded and replaced by 100 µL of dimethyl sulfoxide to dissolve formazan crystals. The absorbance was then read at 600 nm by spectrophotometry. For all concentrations of a given compound, cell viability was expressed as the percentage of the ratio between the mean absorbance of treated cells and the mean absorbance of untreated cells. Three independent experiments were performed, and the data were expressed as percentage of survival (using the untreated cells as 100%) and subjected to statistical analysis (n = 3). The IC50 was calculated using the Chou and Talalay method.

In a further test the test system is U251 glioblastoma cells. The experiment in a line: MTT cell viability assay, U251. The conditions noted are these: Homo sapiens, U-251, U251, 72 h, mean ± SEM, read-out: IC50 (metabolic activity). Format: cell-based. How it is done: as §1
On the technique in general: Tetrazolium dyes change colour on reduction, which living cells bring about.

The target of another test is T2, mature Tau aggregates (Homo sapiens, UniProt P10636).
T2 construct: The full-length human Tau (hTau40) was expressed in a transformed E. coli BL21 (DE3) strain; made in house; host or cells: E. coli BL21 (DE3)
The experiment in a line: Dissolution of preformed (mature) Tau aggregates, ThS fluorescence. Format: biochemical. The note with it: 10, 30 and 100 µM added to ThS-labelled aggregates after 8 h, 37 °C. As for the experimental part:
Moreover, we performed a qualitative study of the ability of QCT and compounds 1, 5, and 9 to dissolve preformed Tau aggregates (Figure 3).
Eight-hour time courses were performed with ThS to monitor heparin-induced Tau aggregation by spectrofluorometry at 520 nm (37 °C), then 10, 30, and 100 µM of compounds (curves b–d) were added to the ThS-labelled Tau aggregates. A control was performed without compound (curve a).

The next test relates to U138 glioblastoma cells. The experiment in a line: MTT cell viability assay, U138. The note with it: Homo sapiens, U138, 72 h, mean ± SEM, read-out: IC50 (metabolic activity). Format: cell-based. How it is done:
as §1

For another test, the system named is T98G glioblastoma cells. The test can be described thus: MTT cell viability assay, T98G. The note with it: Homo sapiens, 72 h, mean ± SEM, read-out: IC50 (metabolic activity). Format: cell-based. As for the experimental part: as §1
Test [3] has as its target T3, full-length human Tau (hTau40) (Homo sapiens, UniProt P10636).
T3 construct: The full-length human Tau (hTau40) was expressed in a transformed E. coli BL21 (DE3) strain; made in house; host or cells: E. coli BL21 (DE3)
The test can be described thus: Tau oligomerization inhibition assay (heparin-induced, thioflavin S fluorescence). The format is biochemical. As for the experimental part: Tau oligomerization inhibition assay was performed at 37 °C in 96-well plates by monitoring thioflavin-S fluorescence at 520 nm after excitation at 440 nm using a microplate reader (POLARstar Omega system, BMG Labtech, Paris, France). The Tau oligomerization process was induced by heparin. […] The plates were shaken at 200 rpm for 10 s before each measurement. The real value of fluorescence at the plateau was determined using SciDAVis v1.23 software. Data were fitted to the SciDAVis built-in ExpGrowth equation by means of nonlinear least-squares regression analysis. Y = Y0 + A × exp(x/t)(1)
The unscaled Levenberg–Marquardt algorithm was used, and initial values were given to Y0, A, and t. The final Y0 value of the model corresponds to the plateau value. The plateau values were then used to calculate the Tau oligomerization inhibition percentage. The IC50 for each compound was calculated from the scatter plot of Tau oligomerization inhibition (in percentage) as a function of log10 of compound concentration. The IC50 value (in µM) thus corresponds to ten raised to the power of […].

For a further test, the system named is U87 glioblastoma cells. The experiment in a line: MTT cell viability assay, U87. The format is cell-based, human. The note with it: Homo sapiens; U87, 72 h, MTT; mean ± SEM; read-out: IC50 (metabolic activity). How it is done:
as §1

The next test has as its system R3 peptide. Set-up: method as in PMID 34743390. The note with it: 10 µM, AFM analysis; cited from earlier work.
The subject of test [4] is GBM cells (U87, U251, U138, and T98G). The test can be described thus: MTT assay across the Tau-expressing GBM cell models. The format is cell-based, human. How it is done: as §1
The mark [5] stands for this setting: 2 µM Tau, heparin-induced, ThS, buffer A pH 6.9, 25 °C per table footnote (37 °C in method), mean ± SD, read-out: Inhibition of Aggregation IC50.

The structures appear in SMILES notation. Like-named read-outs stand apart in the source and are kept apart here.

What is called Kd is the free concentration of one partner at which half of the binding sites on the other are occupied at equilibrium, for simple one-to-one binding. As usually defined, the IC50 is the concentration needed to halve the response being measured.

T1 sequence (P10636 1-441 isoform P10636-8): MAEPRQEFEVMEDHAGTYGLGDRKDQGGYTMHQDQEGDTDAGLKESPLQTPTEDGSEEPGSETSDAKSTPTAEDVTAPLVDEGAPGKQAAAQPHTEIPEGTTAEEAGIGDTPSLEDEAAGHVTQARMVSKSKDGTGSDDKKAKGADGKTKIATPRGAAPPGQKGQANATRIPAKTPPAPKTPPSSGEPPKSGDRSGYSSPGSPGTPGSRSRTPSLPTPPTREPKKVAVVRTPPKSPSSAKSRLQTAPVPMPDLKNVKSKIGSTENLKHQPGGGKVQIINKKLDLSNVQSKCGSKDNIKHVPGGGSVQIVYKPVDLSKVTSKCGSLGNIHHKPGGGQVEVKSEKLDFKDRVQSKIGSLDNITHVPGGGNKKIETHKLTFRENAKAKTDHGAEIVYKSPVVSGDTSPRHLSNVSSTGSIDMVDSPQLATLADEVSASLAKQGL
T3 sequence (P10636 1-441 isoform P10636-8): as above
T2 sequence (P10636 1-441 isoform P10636-8): as above

For `O=c1c(O)c(-c2ccc(O)c(O)c2)oc2cc(O)cc(O)c12` [QCT, quercetin, reference compound], the “Equilibrium Binding Constants to Tau, fA (Tyr accessible fraction)” value in [1] was found to be 0.12 ± 0.04. The Kd in [1] worked out at 2.4 ± 0.6 µM. Also, the 50% inhibitory concentration (IC50) was > 100 µM in test [2]; > 100 µM in the test on U251 glioblastoma cells; > 100 µM with U138 glioblastoma cells; > 100 µM in the test with T98G glioblastoma cells; 17.3 ± 0.6 µM in [3]; > 100 µM in the test on U87 glioblastoma cells. In addition, the “Ability to dissolve mature (preformed) Tau aggregates” value at mature Tau aggregates is listed as “able to dissolve mature Tau aggregates”. The R3 peptide fibrillation result with R3 peptide is “abrogated R3 peptide fibrillation”.

In the case of `COc1c(-c2cccc(F)c2)oc2ccc3nc(N)sc3c2c1=O` [Compound 14], the “Equilibrium Binding Constants to Tau, fA (Tyr accessible fraction)” value in test [1] is 0.21 ± 0.04. Moreover, the Kd in test [1] stood at 4.2 ± 0.3 µM. Also, the 50% inhibitory concentration (IC50) with U251 glioblastoma cells was found to be 1.3 ± 0.5 µM; in the test with U138 glioblastoma cells, 1.4 ± 0.2 µM; in the test on T98G glioblastoma cells, 2.7 ± 0.5 µM; in test [3] (setting [5]), 11.7 ± 2 µM; in the test on U87 glioblastoma cells it was 1.1 ± 0.2 µM. Moreover, the “efficacy fold higher than 13 and 15” value in test [4] (GBM cells) was “up to 6 fold”.

Turning to `Nc1nc(-c2ccc3oc(-c4ccccc4)cc(=O)c3c2)cs1` [Compound 1], in [1], the “Equilibrium Binding Constants to Tau, fA (Tyr accessible fraction)” value is on record as 0.39 ± 0.08. In addition, the Kd in test [1] turned out to be 7 ± 2.3 µM. Also, the half-maximal inhibitory concentration (IC50) was 33.2 ± 13.3 µM in [2]; 6.7 ± 2.2 µM in the test with U251 glioblastoma cells; 6.4 ± 1.3 µM in the test on U138 glioblastoma cells; 4.2 to 22.4 µM in [4] (Homo sapiens, U87, U251, U138, T98G, 72 h MTT, read-out: IC50 among the Tau-expressing GBM cell models); 4.2 ± 0.7 µM in the test on T98G glioblastoma cells; 92 ± 9.6 µM in test [3] (setting [5]). Also, the IC50 with U87 glioblastoma cells was determined as 22.4 ± 5.2 µM. Moreover, the “Ability to dissolve mature (preformed) Tau aggregates” value at mature Tau aggregates is recorded as “able to dissolve mature Tau aggregates”.

Values taken from article PMC10606064, “2-Aminothiazole-Flavonoid Hybrid Derivatives Binding to Tau Protein and Responsible for Antitumor Activity in Glioblastoma” (International Journal of Molecular Sciences, 2023).
